Experimental data: publication PMC10889091, “Isolation, Characterization, Genome Annotation, and Evaluation of Tyrosinase Inhibitory Activity in Secondary Metabolites of Paenibacillus sp. JNUCC32: A Comprehensive Analysis through Molecular Docking and Molecular Dynamics Simulation” (International Journal of Molecular Sciences, 2024)
pIC50: −log10 of the molar value.

Biological target: T1, mushroom tyrosinase (Agaricus bisporus, UniProt C7FF04)
T1 construct: gene PPO3
Assay: mushroom tyrosinase (Sigma T3824) assay with L-tyrosine, absorbance at […] nm
Type: biochemical

T1 sequence (C7FF04 2-392): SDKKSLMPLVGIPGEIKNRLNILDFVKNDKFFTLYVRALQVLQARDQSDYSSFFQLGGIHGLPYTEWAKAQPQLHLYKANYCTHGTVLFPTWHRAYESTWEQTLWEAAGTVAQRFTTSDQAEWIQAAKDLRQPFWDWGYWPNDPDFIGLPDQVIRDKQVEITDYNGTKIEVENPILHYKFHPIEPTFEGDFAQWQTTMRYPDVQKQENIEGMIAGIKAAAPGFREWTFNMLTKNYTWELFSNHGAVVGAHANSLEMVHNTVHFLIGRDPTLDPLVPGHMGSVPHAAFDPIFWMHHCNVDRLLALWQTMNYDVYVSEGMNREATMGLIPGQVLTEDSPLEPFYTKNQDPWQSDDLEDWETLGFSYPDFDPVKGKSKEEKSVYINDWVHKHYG

- pIC50: 3.00
SMILES: OCCc1c[nH]c2ccccc12 [compound 1, tryptophol]
